Reference: publication PMC7695167, “Targeting the Interaction between the SH3 Domain of Grb2 and Gab2” (Cells, 2020)

Target: T1, C-SH3 Grb2 (C-terminal SH3 domain of Grb2) (Homo sapiens, UniProt P62993)
T1 construct: isolated C-terminal SH3 domain, recombinant, expressed and purified as previously reported
Assay: tryptophan fluorescence, titration of preformed C-SH3:Gab2 peptide complex
Format: binding
Details: read-out: apparent inhibition constant

T1 sequence (P62993 159-217 limits assumed): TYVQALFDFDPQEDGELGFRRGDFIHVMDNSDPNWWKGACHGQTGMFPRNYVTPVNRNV

- Ki: ~5 µM
SMILES: CCOc1cc(CNCCc2ccc(OC)cc2)ccc1OCc1cccc(Cl)c1 [AN-465-J137-985, N-(4-((3-Chlorobenzyl)oxy)-3-ethoxybenzyl)-2-(4-methoxyphenyl)ethan-1-amine]
